Patent publication US11098041B2 (Merck Patent GmbH, priority 2014, dated 2021)
pIC50: −log10 of the molar value.

Columns and labels:
[1] = target: BTK C481S (His-TEV-hsBTK(328-659)(C481S)) (Homo sapiens (Human), UniProt Q06187, C481S); assay: Assay B: microfluidic off-chip mobility shift assay against BTK C481S enzyme; type: biochemical; conditions: BTK C481S mutant
Method: The mechanics of the assay platform are described by the vendor (PerkinElmer, Hopkinton, Mass.) on their website at the following URL: http://caliperls.com.
5 uL of enzyme buffer and 7.5 uL of ATP/KinKDR peptide substrate mix were added to Matrix (#4315) 384-well, sterile, flat-bottom polypropylene plates (Thermo Fisher Scientific, Hudson, N.H.) with 125 nL of serially diluted compounds prepared in 100% DMSO, and incubated for 90 min. at 25° C. Following the incubation period, reactions were terminated by adding 65 uL quench buffer consisting of 100 mM HEPES, pH 7.5, 0.015% Brij-35 (30%), 0.277% Coating Reagent #3 (PerkinElmer, Mountain View, Calif.), 5% DMSO. Terminated reactions were monitored at −2 PSI, −3000 V/−700 Volts in a LabChip 3000 plate reader from Caliper Life Sciences, a PerkinElmer Company (Hopkinton, Mass.), and the activity was quantified by laser-induced fluorescence measuring the charge/mass difference between substrate and product resulting from peptide phosphorylation. IC50 and efficacy were determined by plotting log [Inhibitor] vs. % Activity in GeneData Screener (Basel, Switzerland).

full-length human BTK = full-length human BTK (Homo sapiens (Human), UniProt Q06187); assay: Assay A: microfluidic off-chip mobility shift assay against BTK enzyme; type: biochemical
Sequence of full-length human BTK (Q06187 whole entry): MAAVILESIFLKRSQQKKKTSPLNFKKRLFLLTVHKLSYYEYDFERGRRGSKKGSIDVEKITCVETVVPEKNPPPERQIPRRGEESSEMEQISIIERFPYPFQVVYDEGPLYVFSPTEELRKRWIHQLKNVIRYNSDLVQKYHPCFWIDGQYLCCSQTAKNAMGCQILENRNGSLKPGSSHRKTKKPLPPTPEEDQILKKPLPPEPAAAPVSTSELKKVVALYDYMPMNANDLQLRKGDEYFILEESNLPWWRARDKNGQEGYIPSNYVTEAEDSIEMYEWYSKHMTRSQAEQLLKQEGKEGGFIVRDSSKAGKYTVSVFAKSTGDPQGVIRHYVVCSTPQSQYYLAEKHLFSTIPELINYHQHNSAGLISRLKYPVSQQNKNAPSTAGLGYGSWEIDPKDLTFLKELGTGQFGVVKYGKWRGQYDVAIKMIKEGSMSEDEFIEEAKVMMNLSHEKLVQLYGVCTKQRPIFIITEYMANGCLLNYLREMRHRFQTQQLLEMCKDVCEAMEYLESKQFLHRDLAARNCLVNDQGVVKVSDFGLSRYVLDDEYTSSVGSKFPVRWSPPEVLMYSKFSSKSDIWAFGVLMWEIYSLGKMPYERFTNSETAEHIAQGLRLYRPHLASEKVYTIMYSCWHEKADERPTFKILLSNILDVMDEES
Method: Assay A: Microfluidic Off-Chip Mobility Shift Assay Protocol for Potency Assessment Against BTK Enzyme
The protocol below describes microfluidic, off-chip mobility shift kinase assay to measure inherent potency of compounds against BTK enzyme.
5 uL of enzyme buffer and 7.5 uL of ATP/kinKDR peptide substrate mix were added to Matrix (#115304) 384-well, sterile, polypropylene plates (Thermo Fisher Scientific, Hudson, N.H.) with 125 nL of serially diluted compounds prepared in 100% DMSO, and incubated for 90 min. at 27° C. Following the incubation period, reactions were stopped by adding 60 uL stop buffer consisting of 100 mM HEPES, pH 7.5, 0.015% Brij-35 (30%), 0.277% Coating Reagent #3 (Caliper Life Sciences, Mountain View, Calif.), 5% DMSO. Stopped reactions were monitored at −2 PSI, −3000 V/−700 V in a LabChip 3000 plate reader from Caliper Life Sciences, a PerkinElmer Company (Hopkinton, Mass.), and the activity was measured by off-chip mobility shift assay measuring the charge/mass difference between substrate and product resulting from peptide phosphorilation. IC50 and efficacy were determined by plotting log [Inhibitor] vs. % Activity in GeneData Screener (Basel. Switzerland).

Sequence of BTK C481S (His-TEV-hsBTK(328-659)(C481S)) (Q06187 328-659 C481S): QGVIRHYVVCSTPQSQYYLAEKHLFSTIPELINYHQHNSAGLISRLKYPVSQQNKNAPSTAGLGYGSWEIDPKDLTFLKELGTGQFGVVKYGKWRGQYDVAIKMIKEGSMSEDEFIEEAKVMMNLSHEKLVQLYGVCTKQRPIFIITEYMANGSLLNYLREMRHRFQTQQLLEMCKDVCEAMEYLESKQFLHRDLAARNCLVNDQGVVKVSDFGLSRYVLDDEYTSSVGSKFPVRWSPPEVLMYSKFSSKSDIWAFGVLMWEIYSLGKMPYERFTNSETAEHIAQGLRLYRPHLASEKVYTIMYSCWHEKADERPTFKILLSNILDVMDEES

Compound | pIC50 [1] | pIC50 (full-length human BTK)
Cn1cc(-c2nc3c(-c4cccc(NC(=O)c5noc(C(C)(C)C)n5)c4CO)ccnc3[nH]2)cn1 [Example 43, 5-tert-Butyl-N-[2-(hydroxymethyl)-3-[2-(1-methyl-1H-pyrazol-4-yl)-3H-imidazo[4,5-b]pyridin-7-yl]phenyl]-1,2,4-oxadiazole-3-carboxamide] | 6.00 to 7.00 | 6.00 to 7.00
Cn1cc(-c2nc3c(-c4ccc(CNC(=O)c5csc(C(F)(F)F)n5)c(F)c4)ccnc3[nH]2)cn1 [Example 22, 2-Trifluoromethyl-thiazole-4-carboxylic acid 2-fluoro-4-[2-(1-methyl-1H-pyrazol-4-yl)-3H-imidazo[4,5-b]pyridin-7-yl]-benzylamide] | 6.00 to 7.00 | 6.00 to 7.00
Cc1cc(-c2ccnc3[nH]c(-c4cnn(C)c4)nc23)ccc1CNC(=O)C(N)=O [Example 101, N-{2-Methyl-4-[2-(1-methyl-1H-pyrazol-4-yl)-3H-imidazo[4,5-b]pyridin-7-yl]-benzyl}-oxalamide] | 5.30 to 6.00 | 5.30 to 6.00
Cn1cc(-c2nc3c(-c4cccc(NC(=O)c5noc(C6CC6)n5)c4CO)ccnc3[nH]2)cn1 [Example 44, 5-Cyclopropyl-N-[2-(hydroxymethyl)-3-[2-(1-methyl-1H-pyrazol-4-yl)-3H-imidazo[4,5-b]pyridin-7-yl]phenyl]-1,2,4-oxadiazole-3-carboxamide] | > 7.00 | 5.30 to 6.00
Cn1cc(-c2nc3c(-c4ccc(CN5CCOc6cc(C7CC7)cc(F)c6C5=O)cc4CO)ccnc3[nH]2)cn1 [Example 38, 8-Cyclopropyl-6-fluoro-4-[[3-(hydroxymethyl)0-4-[2-(1-methyl-1H-pyrazol-4-yl)-3H-imidazo[4,5-b]pyridin-7-yl]phenyl]methyl]-2,3,4,5-tetrahydro-1,4-benzoxazepin-5-one] | 6.00 to 7.00 | 6.00 to 7.00
Cn1cc(-c2nc3c(-c4ccc(CNC(=O)CCC(C)(C)C)c(F)c4)ccnc3[nH]2)cn1 [Example 21, 4,4-Dimethyl-pentanoic acid 2-fluoro-4-[2-(1-methyl-1H-pyrazol-4-yl)-3H-imidazo[4,5-b]pyridin-7-yl]-benzylamide] | > 7.00 | > 7.00
CC(C)(C)c1cc(C(=O)NCc2ccc(-c3ccnc4[nH]c(C5CCNC(=O)C5)nc34)cc2F)no1 (stereo not shown) [Example 29, 5-tert-Butyl-isoxazole-3-carboxylic acid 2-fluoro-4-[2-(2-oxo-piperidin-4-yl)-3H-imidazo[4,5-b]pyridin-7-yl]-benzylamide] | 6.00 to 7.00 | 5.30 to 6.00
CC(C)(C)c1nc(C(=O)NCc2ccc(-c3ccnc4[nH]c(C5CCNC(=O)C5)nc34)cc2F)no1 (stereo not shown) [Example 30, 5-tert-Butyl-[1,2,4]oxadiazole-3-carboxylic acid 2-fluoro-4-[2-(2-oxo-piperidin-4-yl)-3H-imidazo[4,5-b]pyridin-7-yl]-benzylamide] | 6.00 to 7.00 | 5.30 to 6.00
COc1cccc(-c2nc3c(-c4cc(F)c(CNC(=O)c5noc(C(C)(C)C)n5)cc4C)ccnc3[nH]2)c1 [Example 78, 5-tert-Butyl-N-([2-fluoro-4-[2-(3-methoxyphenyl)-3H-imidazo[4,5-b]pyridin-7-yl]-5-methylphenyl]methyl)-1,2,4-oxadiazole-3-carboxamide] | > 7.00 | > 7.00
CC(C)(C)c1nc(C(=O)Nc2cccc(-c3ccnc4[nH]c(-c5ccc(N6CCC(F)(F)CC6)cc5)nc34)c2CO)no1 [Example 48, 5-tert-Butyl-N-(3-[2-[4-(4,4-difluoropiperidin-1-yl)phenyl]-3H-imidazo[4,5-b]pyridin-7-yl]-2-(hydroxymethyl)phenyl)-1,2,4-oxadiazole-3-carboxamide] | > 7.00 | 6.00 to 7.00
Cn1cc(-c2nc3c(-c4cnc(CNC(=O)c5nnc(C(C)(C)C)o5)c(F)c4)ccnc3[nH]2)cn1 [Example 13, 5-tert-Butyl-[1,3,4]oxadiazole-2-carboxylic acid {3-fluoro-5-[2-(1-methyl-1H-pyrazol-4-yl)-3H-imidazo[4,5-b]pyridin-7-yl]-pyridin-2-ylmethyl}-amide] | > 7.00 | 6.00 to 7.00

Further lines, results first:

pIC50 [1] | pIC50 (full-length human BTK) | Compound
> 7.00 | 6.00 to 7.00 | C[C@@H]1CN(c2ccc(-c3nc4c(-c5cccc(NC(=O)c6noc(C(C)(C)C)n6)c5CO)ccnc4[nH]3)cc2)C[C@H](C)O1 [Example 47, 5-tert-Butyl-N-[3-(2-[4-[(2R,6S)-2,6-dimethylmorpholin-4-yl]phenyl]-3H-imidazo[4,5-b]pyridin-7-yl)-2-(hydroxymethyl)phenyl]-1,2,4-oxadiazole-3-carboxamide]
> 7.00 | > 7.00 | CC(C)(C)c1noc(C(=O)NCc2ccc(-c3ccnc4[nH]c(-c5ccncc5)nc34)cc2F)n1 [Example 150, 3-(tert-butyl)-N-(2-fluoro-4-(2-(pyridin-4-yl)-3H-imidazo[4,5-b]pyridin-7-yl)benzyl)-1,2,4-oxadiazole-5-carboxamide]
> 7.00 | > 7.00 | CC(C)(C)c1nnc(C(=O)NCc2ccc(-c3ccnc4[nH]c(-c5cnn(C6COC6)c5)nc34)cc2F)s1 [Example 125, 5-tert-Butyl-[1,3,4]thiadiazole-2-carboxylic acid 2-fluoro-4-[2-(1-oxetan-3-yl-1H-pyrazol-4-yl)-3H-imidazo[4,5-b]pyridin-7-yl]-benzylamide]
> 7.00 | > 7.00 | CC(C)(C)c1nc(C(=O)Nc2cccc(-c3ccnc4[nH]c(-c5ccc(C(=O)N6CCOCC6)cc5)nc34)c2CO)no1 [Example 45, 5-tert-Butyl-N-[2-(hydroxymethyl)-3-(2-[4-[(morpholin-4-yl)carbonyl]phenyl]-3H-imidazo[4,5-b]pyridin-7-yl)phenyl]-1,2,4-oxadiazole-3-carboxamide]
> 7.00 | > 7.00 | Cn1ccc(-c2nc3c(-c4ccc(CNC(=O)c5nnc(C(C)(C)C)o5)c(F)c4)ccnc3[nH]2)cc1=O [Example 141, 5-tert-Butyl-[1,3,4]oxadiazole-2-carboxylic acid 2-fluoro-4-[2-(1-methyl-2-oxo-1,2-dihydro-pyridin-4-yl)-3H-imidazo[4,5-b]pyridin-7-yl]-benzylamide]
> 7.00 | > 7.00 | 5-tert-Butyl-[1,3,4]oxadiazole-2-carboxylic acid 2-fluoro-4-{2-[1-(2-morpholin-4-yl-ethyl)-1H-pyrazol-4-yl]-3H-imidazo[4,5-b]pyridin-7-yl}-benzylamide [Example 120]
> 7.00 | > 7.00 | COc1ncccc1-c1nc2c(-c3ccc(CNC(=O)c4nc(C(C)(C)C)no4)c(F)c3)ccnc2[nH]1 [Example 151, 3-(tert-butyl)-N-(2-fluoro-4-(2-(2-methoxypyridin-3-yl)-3H-imidazo[4,5-b]pyridin-7-yl)benzyl)-1,2,4-oxadiazole-5-carboxamide]
> 7.00 | > 7.00 | COc1cccnc1-c1nc2c(-c3ccc(CNC(=O)c4nc(C(C)(C)C)no4)c(F)c3)ccnc2[nH]1 [Example 152, 3-(tert-butyl)-N-(2-fluoro-4-(2-(3-methoxypyridin-2-yl)-3H-imidazo[4,5-b]pyridin-7-yl)benzyl)-1,2,4-oxadiazole-5-carboxamide]
> 7.00 | > 7.00 | Cn1cc(-c2nc3c(-c4ccc(Cn5ncc6cc(C(C)(C)C)cc(F)c6c5=O)c(F)c4)ccnc3[nH]2)cn1 [Example 99, 6-tert-Butyl-8-fluoro-2-{2-fluoro-4-[2-(1-methyl-1H-pyrazol-4-yl)-3H-imidazo[4,5-b]pyridin-7-yl]-benzyl}-2H-phthalazin-1-one]
